{
  "source": "patent US11738072B2",
  "about": "“Tumor vaccine and uses thereof” (WestVac Biopharma Co., Ltd., priority 2017, dated 2023)",
  "key": {"lysosomes of A549 cells [1]": {"system": "lysosomes of A549 cells", "experiment": "Lysosomal membrane permeability by CathepsinB intracellular localization", "assay_type": "cell-based", "details": "3 h, immunofluorescence, confocal microscope", "description": "(1) Inoculation of A549 cells in plates: round sterilized cell slides were placed at the bottom of a 6-well plate, inoculated A549 cells into the 6-well plate as per 1×10^5 cells/well, 2 ml of medium was added to each well, and incubated overnight.\n(2) The medium (blank control group), pMVA-1 plasmid (control group PMVA), DOTAP cationic lipid (control group DOTAP) and pMVA-1/DOTAP complex (experimental group PMVA-DOTAP) were added to A549 cells cultured in the Step (1), and incubated at 37° C. for 3 h.\n(3) A549 cells treated by different groups in Step (2) were washed twice with PBS, stabilized with ice methanol for 3 min, washed twice with PBS, and sealed with PBST containing 0.3% Triton of 5% FBS for 20 min.\n(4) The cells in Step (3) were washed once with PBS, and the human CathepsinB antibody (made by Abcam) was diluted at a ratio of 1:300. Incubating at room temperature for 1 h, washing with PBS three times for 5 minutes each time, adding 1:1000 fluorescent secondary antibody, and incubating at room temperature for 1 h in the dark.\n(5) The cells in Step (4) were washed with PBS for three times, the films were washed with ultrapure water to remove excess water, and sealed with anti-fluorescence quencher, then cured for 6 h. Fluorescent cells were observed under a confocal microscope and the images were saved."}, "[2]": {"system": "bone marrow-derived dendritic cells (BMDC)", "experiment": "FITC-Dextran uptake by BMDC, flow cytometry", "assay_type": "cell-based, mouse", "details": "BMDC stimulated 24 h by CT26 cells treated with sample", "description": "a. Bone marrow cells were obtained from the femur and tibia of mouse, sieved and collected in a centrifuge tube, centrifuged at 280 g and at room temperature for 5 min, and the supernatant was discarded.\nb. 10 ml of red cell lysate was added to the cells described in Step a, standing for 3 min at room temperature, centrifuged at 280 g and at room temperature for 5 min, and the supernatant was discarded.\nc. The bone marrow cells described in Step b were washed twice with PRMI-1640 medium, centrifuged at 280 g and at room temperature for 10 min, live cell count was carried out, the cell concentration was adjusted to 1×10^6 cells/ml by RPMI-1640 complete medium.\nd. In Step c, the recombinant mouse GM-CS with a final concentration of 10 ng/ml was added and 4 ml/well cell suspension was inoculated into a 6-well plate, and cultured in a 37° C., 5% CO2 incubator. When cell colonies grew on the bottom of the plate, the medium was pipetted, washed once with the medium, and 1640 complete medium containing 10 ng/ml of GM-CSF was added to each well.\ne. […]\nd. Test and analysis of fluorescence intensity of BMDC based on flow cytometry."}, "lysosomes of A549 cells [3]": {"system": "lysosomes of A549 cells", "experiment": "Lysosomal membrane permeability by FITC-Dextran cell localization", "assay_type": "cell-based", "details": "3 h, confocal microscope; dispersed = increased LMP", "description": "(1) Inoculation of A549 cells in plates: A549 cells in the logarithmic growth phase were prepared into a cell suspension, inoculated into a 6-well plate as per approximately 1×10^5 cells/well. Then, 2 ml of medium was added to each well, and cultured overnight in a 5% CO2 incubator at 37° C.\n(2) FITC-Dextran (made by Sigma) with a final concentration of 1 mg/ml was added to the cell medium in Step (1), and incubated at 37° C. for 4 h in the dark.\n(3) The cells in Step (2) were washed twice with sterile PBS, 1640 medium was added, thus allowing A549 cells to be treated with the medium (blank control group), pMVA-1 plasmid (control group PMVA), DOTAP cationic lipid (control group DOTAP) and pMVA-1/DOTAP complex (experimental group PMVA-DOTAP) respectively, and incubated at 37° C. for 3 h in the dark.\n(4) The cells in Step (3) were washed twice with PBS, stabilized with 4% paraformaldehyde for 10 min, washed twice with PBS, sealed. Fluorecytes were observed under a confocal microscope and the images were saved."}, "[4]": {"system": "mouse colorectal cancer cell line CT26", "experiment": "Experiment (1): model mice with abdominal metastasis of CT26, treated 9 times", "assay_type": "in vivo", "description": "Balb/c mice aged 6-8 weeks were raised. The mouse colorectal cancer cell line CT26 cultured to the logarithmic growth phase was prepared into a cell suspension, and mouse abdominal tumor was modeled by intraperitoneal injection. The number of cells injected into each mouse was 2×10^5, and the injection system was 100 μl for each mouse.\nAs described in Table 14, the mice that had been successfully modeled were divided into groups as follows: Normal group was not inoculated with tumor cell nor administrated with drugs; untreated group was intraperitoneally inoculated with CT26 cells instead of drugs; NS group was intraperitoneally inoculated with tumor cells and administrated with normal saline. After inoculation of the tumor, mice were intraperitoneally administrated on the 3rd day as follows: 15 μg of plasmid DNA and 75 μg of DOTAP for each mouse in the treatment group of plasmid DNA/DOTAP complex group; i.e. the mass ratio of plasmid DNA to DOTAP was 1:5. After that, they were administrated every three days for a total of 9 times.\nThe mice were administrated for 9 times in total and allowed to die naturally. The natural death dates of the mice in each experimental group were recorded, and the body weight and survival time of the mice in each experimental group were counted. The volume of ascites were counted, tumors were removed and weighed."}},
  "data": [
    {"smiles": "CCCCCCCC/C=C\\CCCCCCCC(=O)OCC(C[N+](C)(C)C)OC(=O)CCCCCCC/C=C\\CCCCCCCC", "note": "(stereo not drawn) [DOTAP, 1,2-dioleoyl-3-trimethylammonium-propane]", "values": [
      {"measurement": "distribution of Cathepsin B in A549 cells", "setting": "lysosomes of A549 cells [1]", "result": "distributed in dots"},
      {"measurement": "FITC average fluorescence intensity of CD11c positive DC", "setting": "[2]", "result": "decreased significantly"},
      {"measurement": "distribution of FITC-Dextran in cytoplasm of A549 cells", "setting": "lysosomes of A549 cells [3]", "result": "distributed in dots"},
      {"measurement": "average ascites volume", "setting": "[4]; 15 μg pMVA-1 and/or 75 μg DOTAP ip every 3 days x9", "result": 3.11, "unit": "mL"},
      {"measurement": "day after inoculation of the tumor cells on which all mice of the group had died", "setting": "[4]; 15 μg pMVA-1 and/or 75 μg DOTAP ip every 3 days x9, natural death", "result": 39, "unit": "days"},
      {"measurement": "average tumor weight", "setting": "[4]; abdominal tumor weighed after the mice died", "result": 8.23, "unit": "g"}
    ]}
  ]
}
